Results: article PMC12040169 (PLOS Biology, 2025)

Legend:
[1] = tested on: T1, C. trachomatis L2/434/Bu expressing GFP (CTL2-GFP); assay: microbe, parasite or virus in culture; parameters: C. trachomatis total inclusion area by high-content imaging, normalised to DMSO; details: Chlamydia trachomatis, HeLa, 28.5 h; total inclusion area; read-out: % of control remaining
T1 construct: L2/434/Bu GFP intracellular growth in HeLa cells
Description: We screened a library of 36,785 small molecules displaying drug-like properties and covering a wide chemical space (Fig 1A and S2A Data). In this process, we also complemented the assay described above with an imaging-based readout (Fig 1B). After measurements of bulk GFP and resorufin fluorescence, cells were fixed, stained with the DNA dye Hoechst, and imaged at a high-content imaging platform to detect chlamydial inclusions (GFP) and host cell nuclei (Hoechst). The total area and number of inclusions in individual wells and the number of nuclei then served as additional proxies for chlamydial growth and host cell viability. […] MICs were calculated as described above.

[2] = tested on: T2, CTL2-GFP (C. trachomatis L2/434/Bu, GFP-expressing); assay: microbe, parasite or virus in culture; parameters: Intracellular C. trachomatis growth in HeLa cells, bulk GFP fluorescence relative to DMSO; details: Chlamydia trachomatis, HeLa, 28.5 h; bulk GFP, mean of 2; read-out: % of control remaining
T2 construct: L2/434/Bu, GFP-expressing
Experimental: MICs were calculated as described above.

[3] = in vitro; parameters: Viability of infected HeLa host cells, resazurin conversion, bulk resorufin fluorescence relative to DMSO; details: human, hela cells; bulk resorufin, mean of 2

| SMILES | activity at 1 µM [1] | activity at 5 µM [1] | activity at 10 µM [1] | activity at 1 µM [2] | activity at 5 µM [2] | activity at 10 µM [2] | viability at 28.5 h, 1 µM [3] | viability at 28.5 h, 5 µM [3] | viability at 28.5 h, 10 µM [3] |
| --- | --- | --- | --- | --- | --- | --- | --- | --- | --- |
| Cc1cc(C(=O)Nc2ccc(S(=O)(=O)Nc3onc(C)c3C)cc2)no1 [CBK268166] | 89.9% | 77.7% | 61.3% | 113% | 81.5% | 33.7% | 101% | 92.7% | 100% |
| CN1CCN(c2ccc3ccn(S(=O)(=O)c4ccc([N+](=O)[O-])cc4)c3n2)CC1 [CBK070757C] | 106% | 64% | 24.6% | 140% | 89.2% | 46.7% | 89.6% | 87.7% | 86% |
| COc1ccc(CCN(CCc2ccccc2)CC(O)COc2cccc3c2CCCC3)cc1 (stereo not drawn) [CBK024506T] | 99% | 114% | 55.3% | 108% | 104% | 51% | 97.4% | 95.2% | 101% |
| COc1ccc([C@H]2CN(Cc3ccccc3)[C@@H]3CCN(C(=O)Cc4ccccc4)C[C@H]23)cc1 [CBK286285] | 109% | 95.8% | 41.4% | 130% | 111% | 49.2% | 93.8% | 97.6% | 104% |
| O=C(O)/C(=N\c1cccc2ccccc12)c1ccccc1 [CBK262224] | 69.5% | 62.2% | 32.2% | 80.4% | 66.5% | 49.9% | 87.4% | 88.7% | 96% |
| Cc1noc(NS(=O)(=O)c2ccc(NC(=O)COc3cccc(Br)c3)cc2)c1C [CBK264086] | 93.1% | 45.5% | 20.6% | 96.8% | 38.7% | 17.8% | 89.3% | 91.3% | 94.3% |
| COc1cccc(CNC(C(=O)O)c2ccc3c(c2)OCO3)c1 (stereo not drawn) [CBK015420D] | 103% | 49.9% | 20.3% | 107% | 30.9% | 12.5% | 92.7% | 92.5% | 87.4% |
| COc1ccc([C@H]2CN(Cc3ccccc3)[C@@H]3CCN(C(=O)Cc4ccsc4)C[C@H]23)cc1 [CBK285551] | 148% | 87.9% | 48.8% | 151% | 107% | 36.7% | 89.3% | 93.6% | 93% |
| CCC(CN1CCCC1)NC(=O)Cc1ccc(OC)c(C)c1 (stereo not drawn) [CBK282752] | 108% | 47.2% | 26.1% | 100% | 50.3% | 19.9% | 108% | 112% | 108% |
| CC(C)Nc1nc2cc(Cl)c(Cl)cc2nc1Sc1cccc(O)c1 [CBK093732] | 129% | 50.2% | 35.1% | 124% | 94.8% | 55.6% | 95.8% | 88% | 100% |
| CCOc1ccsc1C(=O)Nc1cc(C)ccn1 [CBK004029] | 116% | 64.9% | 19.7% | 122% | 61.7% | 32.4% | 92.3% | 92.3% | 71.7% |
| CC(=O)Nc1ccc(S(=O)(=O)Nc2ccc(C(=O)Nc3ccc(F)cc3)cc2)cc1 [CBK050401] | 114% | 48.5% | 30% | 101% | 31.9% | 14.2% | 93.4% | 87.7% | 91.8% |
